Measured values reported in US20120014950A1, “Antibodies That Specifically Bind to DR3” (Xencor, Inc., priority 2010, published 2012).

How the values were obtained:
[1] = system: collagen induced arthritis (CIA) mice; assay: Murine collagen induced arthritis (CIA) model; assay type: in vivo, DBA/1JLacJ mice; details: i.p., 200 μg (dexamethasone 50 μg)
Description: In general CIA was induced using the following protocol. Male DBA/1JLacJ mice (8-10 weeks) were injected intradermally (i.d.) at the base of the tail with […] of type II bovine collagen (CII) and complete Freund's adjuvant (CFA) at a final concentration of 4 mg/ml on Day 1. Mice were given a second injection i.d. with CII and CFA on Day 21. On days 21, 28, 35, and 42, mice were treated prophylactically with 200 μg intraperitoneal (i.p.) of the therapeutic molecules, anti-TNF-α antibody (R&D systems, cat #AB-410-NA) or D06-Fab-MSA. In addition, a control group of mice was not treated with a therapeutic molecule (“No Treatment”) and a second control group was treated with 50 μg dexamethasone i.p. every other day (e.o.d.) (“Dexamethasone”). The animals were scored every other day until the experiment was terminated on Day 46.
In a separate experiment, on days 21, 28, 35, and 42, CIA-mice were treated prophylactically with 200 μg intraperitoneal (i.p.) of either 2D9-Fab-MSA, or 5D10-Fab-MSA. In addition, a control group of mice was treated with an isotype control antibody (IgG1). The animals were scored every other day until the experiment was terminated on Day 46. Clinical scores were determined as above.
Histology was preformed to further determine the degree of inflammation as well as potential bone erosion in these animals. […]

DR3 receptor = target: T1, DR3 receptor (Homo sapiens, UniProt Q93038); assay: TF-1 assay (cell viability, cycloheximide, Cell Titer Glo); assay type: cell-based; details: TF-1 cells with cycloheximide; luminescence
T1 construct: endogenous in cells; host or cells: TF-1 (premyeloid)
T1 sequence (Q93038 25-417): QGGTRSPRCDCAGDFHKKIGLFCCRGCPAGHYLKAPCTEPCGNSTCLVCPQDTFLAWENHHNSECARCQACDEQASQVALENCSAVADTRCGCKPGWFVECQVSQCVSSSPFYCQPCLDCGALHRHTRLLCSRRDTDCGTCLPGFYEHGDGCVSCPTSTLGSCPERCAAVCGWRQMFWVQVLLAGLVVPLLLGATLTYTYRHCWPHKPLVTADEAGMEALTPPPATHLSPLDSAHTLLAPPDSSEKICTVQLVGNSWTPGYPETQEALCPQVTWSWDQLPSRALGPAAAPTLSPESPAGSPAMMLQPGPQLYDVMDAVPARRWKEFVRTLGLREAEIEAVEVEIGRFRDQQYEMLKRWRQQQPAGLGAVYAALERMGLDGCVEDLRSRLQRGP

Molecule	% Arthritis Incidence at Day 42 [1]	TF-1 cell viability / apoptosis induction (agonist, TL1A-like activity) (DR3 receptor)
C[C@@H]1C[C@H]2[C@@H]3CCC4=CC(=O)C=C[C@]4(C)[C@@]3(F)[C@@H](O)C[C@]2(C)[C@@]1(O)C(=O)CO [Dexamethasone]	0%	
TL1A: human TL1A (TNFSF15), the natural ligand for DR3; positive control [reference compound]		induce apoptosis
